Measurements from patent US20230111853A1, “COMPOUNDS MODULATING PROTEIN RECRUITMENT AND/OR DEGRADATION” (Orionis Biosciences, Inc., priority 2019, published 2023).

Legend:
[1] = biological target: T1, SALL4 recruitment to CRBN (Homo sapiens, UniProt Q96SW2); assay: Recruitment Assay (MAPPIT-like): SALL4 recruitment to CRBN; assay type: cell-based; settings: HEK293T cells; pSEL-SALL4+pMG1-CRBN; luciferase 24 hours after treatment; read-out: EC50_SALL4
T1 construct: Full size proteins were fused for each of the target proteins tested, except in the case of IKZF1 where isoform 7 was used; expressed in transfected cells; host or cells: HEK293T
Procedure: In this experimental set-up, cells were transfected with a construct encoding a CRBN-fusion protein and another one encoding a substrate-fusion protein. Test compound activity was assessed with increasing concentrations of test compounds (dose-response studies) to monitor the ability to promote CRBN-ligand-induced protein interaction.
Full size proteins were fused for each of the target proteins tested, except in the case of IKZF1 where isoform 7 was used. For the study, the following were used: IKZF1 recruitment: pSEL-CRBN+pMG1-IKZF1(isoform 7); ASS1 recruitment: pSEL-CRBN+pMG1-ASS1. SALL4 recruitment: pSEL-SALL4+pMG1-CRBN. […] Luciferase activity was measured 24 hours after test compound treatment using the Luciferase Assay System kit (PROMEGA, Madison, Wis.) with an Ensight plate reader (PERKIN ELMER LIFE SCIENCES, Waltham, Mass.). Data points depicted fold induction of the average luciferase activity of triplicate samples from EPO+test compound treated cells versus EPO only treated cells. Error bars represent standard deviations. Curves were fit using 4-parameter nonlinear regression in […] PRISM software.

[2] = test system: IKZF1, ASS1 and SALL4 recruitment to CRBN; assay: Recruitment assessment: recruitment of any tested substrate from among IKZF1, ASS1 and SALL4; assay type: cell-based; settings: any tested substrate at any tested compound concentration

T1 sequence (Q96SW2 whole entry, the tested form may be a part, canonical isoform): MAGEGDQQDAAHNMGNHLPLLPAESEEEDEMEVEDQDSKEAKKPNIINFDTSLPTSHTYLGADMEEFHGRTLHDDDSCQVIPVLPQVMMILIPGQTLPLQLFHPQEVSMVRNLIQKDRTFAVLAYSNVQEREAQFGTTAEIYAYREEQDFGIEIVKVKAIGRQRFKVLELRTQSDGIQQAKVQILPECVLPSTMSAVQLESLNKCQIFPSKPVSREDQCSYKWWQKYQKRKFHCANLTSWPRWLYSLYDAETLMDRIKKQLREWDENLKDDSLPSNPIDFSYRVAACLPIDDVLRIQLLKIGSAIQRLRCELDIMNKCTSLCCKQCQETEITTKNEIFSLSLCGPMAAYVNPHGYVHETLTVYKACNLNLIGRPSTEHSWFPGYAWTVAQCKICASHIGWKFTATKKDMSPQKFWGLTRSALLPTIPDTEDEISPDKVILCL
T1 sequence (Q9UJQ4 whole entry partner, the tested form may be a part, canonical isoform): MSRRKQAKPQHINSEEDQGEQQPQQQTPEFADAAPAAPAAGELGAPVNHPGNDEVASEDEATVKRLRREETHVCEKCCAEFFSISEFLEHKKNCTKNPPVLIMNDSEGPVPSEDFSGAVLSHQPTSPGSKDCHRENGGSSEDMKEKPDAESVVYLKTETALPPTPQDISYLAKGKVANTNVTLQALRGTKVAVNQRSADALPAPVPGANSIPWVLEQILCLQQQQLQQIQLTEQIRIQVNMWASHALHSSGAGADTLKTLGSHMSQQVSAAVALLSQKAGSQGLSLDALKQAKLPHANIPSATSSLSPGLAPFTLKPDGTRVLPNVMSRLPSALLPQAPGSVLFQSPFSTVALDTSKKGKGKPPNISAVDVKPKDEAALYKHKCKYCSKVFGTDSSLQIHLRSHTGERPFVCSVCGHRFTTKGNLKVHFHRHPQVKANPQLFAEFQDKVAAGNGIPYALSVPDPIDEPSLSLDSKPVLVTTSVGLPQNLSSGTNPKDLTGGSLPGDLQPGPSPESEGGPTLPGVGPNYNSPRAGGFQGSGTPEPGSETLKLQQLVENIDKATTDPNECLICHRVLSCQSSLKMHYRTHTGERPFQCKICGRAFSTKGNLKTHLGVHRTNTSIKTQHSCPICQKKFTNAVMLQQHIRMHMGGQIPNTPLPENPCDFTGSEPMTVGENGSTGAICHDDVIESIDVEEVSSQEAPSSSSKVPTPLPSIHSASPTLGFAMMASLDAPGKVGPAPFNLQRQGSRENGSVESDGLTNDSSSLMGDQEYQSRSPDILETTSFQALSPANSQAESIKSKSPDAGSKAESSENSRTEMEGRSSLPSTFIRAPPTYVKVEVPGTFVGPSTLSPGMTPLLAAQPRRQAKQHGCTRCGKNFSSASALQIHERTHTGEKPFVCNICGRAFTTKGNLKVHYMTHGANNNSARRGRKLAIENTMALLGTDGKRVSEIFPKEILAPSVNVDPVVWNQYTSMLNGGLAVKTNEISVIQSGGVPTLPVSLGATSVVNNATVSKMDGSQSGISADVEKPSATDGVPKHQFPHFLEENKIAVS
T1 sequence (Q16531 whole entry partner, the tested form may be a part, canonical isoform): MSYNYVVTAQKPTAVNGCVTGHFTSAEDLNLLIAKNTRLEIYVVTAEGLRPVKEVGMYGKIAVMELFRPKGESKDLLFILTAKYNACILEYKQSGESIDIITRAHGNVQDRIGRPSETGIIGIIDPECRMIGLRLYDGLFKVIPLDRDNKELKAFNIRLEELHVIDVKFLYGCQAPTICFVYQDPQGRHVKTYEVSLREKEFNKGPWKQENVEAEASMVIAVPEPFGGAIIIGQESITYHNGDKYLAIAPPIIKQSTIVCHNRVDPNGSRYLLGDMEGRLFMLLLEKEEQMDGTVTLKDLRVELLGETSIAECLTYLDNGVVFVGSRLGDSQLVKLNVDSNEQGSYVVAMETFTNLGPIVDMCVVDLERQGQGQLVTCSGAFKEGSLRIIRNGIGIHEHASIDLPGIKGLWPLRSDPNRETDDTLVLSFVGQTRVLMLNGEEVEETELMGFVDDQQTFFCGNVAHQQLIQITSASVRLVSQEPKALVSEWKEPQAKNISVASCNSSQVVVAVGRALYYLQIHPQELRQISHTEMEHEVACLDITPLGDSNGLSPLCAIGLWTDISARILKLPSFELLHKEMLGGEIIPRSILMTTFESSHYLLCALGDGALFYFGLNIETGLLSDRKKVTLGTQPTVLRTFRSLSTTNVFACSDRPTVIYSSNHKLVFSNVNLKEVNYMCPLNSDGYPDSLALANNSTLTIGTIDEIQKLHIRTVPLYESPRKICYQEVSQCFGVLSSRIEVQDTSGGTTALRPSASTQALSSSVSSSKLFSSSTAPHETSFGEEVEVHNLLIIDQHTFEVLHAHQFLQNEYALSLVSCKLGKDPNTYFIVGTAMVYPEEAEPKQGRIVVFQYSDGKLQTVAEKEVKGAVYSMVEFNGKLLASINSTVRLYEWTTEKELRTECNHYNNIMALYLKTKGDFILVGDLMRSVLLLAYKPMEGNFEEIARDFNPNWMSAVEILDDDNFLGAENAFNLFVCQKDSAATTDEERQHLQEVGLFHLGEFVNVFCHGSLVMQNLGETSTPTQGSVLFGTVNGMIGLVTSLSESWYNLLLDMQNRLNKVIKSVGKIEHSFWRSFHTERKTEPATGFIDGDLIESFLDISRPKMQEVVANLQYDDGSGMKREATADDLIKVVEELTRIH

Structure (SMILES)	EC50 [1]	Recruitment Assessment [2]
CC(C)OC1c2ccccc2C(=O)N1C1CCC(=O)NC1=O (stereo not shown) [3-(1-isopropoxy-3-oxo-isoindolin-2-yl)piperidine-2,6-dione]	2700 nM	TRUE
Cc1nc2ccc(C#N)c(N)c2c(=O)n1C1CCC(=O)NC1=O (stereo not shown) [C10001, 5-amino-3-(2,6-dioxo-3-piperidyl)-2-methyl-4-oxo-quinazoline-6-carbonitrile]	1250 nM	TRUE
O=C1CCC(N2C(=O)c3ccccc3C2NCc2ccccc2)C(=O)N1 (stereo not shown) [C10239, 3-[1-(benzylamino)-3-oxo-isoindolin-2-yl]piperidine-2,6-dione]	1160 nM	TRUE
CN(C)C1c2ccccc2C(=O)N1C1CCC(=O)NC1=O (stereo not shown) [C10981, 3-[1-(dimethylamino)-3-oxo-isoindolin-2-yl]piperidine-2,6-dione]	1460 nM	TRUE
O=C1CCC(N2Cc3ccc(NCC(=O)NC4CCOCC4)cc3C2=O)C(=O)N1 (stereo not shown) [C12693, 2-[[2-(2,6-dioxo-3-piperidyl)-3-oxo-isoindolin-5-yl]amino]-N-tetrahydropyran-4-yl-acetamide]	2620 nM	TRUE
O=C1CCC(N2Cc3ccc(NCC(=O)NC4CCOC4)cc3C2=O)C(=O)N1 (stereo not shown) [C12694, 2-[[2-(2,6-dioxo-3-piperidyl)-3-oxo-isoindolin-5-yl]amino]-N-tetrahydrofuran-3-yl-acetamide]	3430 nM	TRUE
Cc1ccc2nnn(C3CCC(=O)NC3=O)c(=O)c2c1 (stereo not shown) [C16463, 3-(6-methyl-4-oxo-1,2,3-benzotriazin-3-yl)piperidine-2,6-dione]	772 nM	TRUE
Cc1ccc2c(=O)n(C3CCC(=O)NC3=O)nnc2c1 (stereo not shown) [C17800, 3-(7-methyl-4-oxo-1,2,3-benzotriaan-3-yl)piperidirie-2,6-dione]	904 nM	TRUE
COCC(=O)Nc1cccc2c1CN(C1CCC(=O)NC1=O)C2=O (stereo not shown) [C22564, N-[2-(2,6-dioxo-3-piperidyl)-1-oxo-isoindolin-4-yl]-2-methoxy-acetamide]	873 nM	TRUE
CN(C)CC(=O)Nc1cccc2c1CN(C1CCC(=O)NC1=O)C2=O (stereo not shown) [C22586, 2-(dimethylamino)-N-[2-(2,6-dioxo-3-piperidyl)-1-oxo-isoindolin-4-yl] acetamide]	1140 nM	TRUE
CCOC(=O)Nc1cccc2c1CN(C1CCC(=O)NC1=O)C2=O (stereo not shown) [C22622, ethyl N-[2-(2,6-dioxo-3-piperidyl)-1-oxo-isoindolin-4-yl]carbamate]	121 nM	TRUE
O=C1CCC(N2Cc3cccc(F)c3C2=O)C(=O)N1 (stereo not shown) [C23066, 3-(7-fluoro-1-oxo-isoindolin-2-yl)piperidine-2,6-dione]	88.2 nM	TRUE
Cc1ccc2c(c1)C(=O)N(C1CCC(=O)NC1=O)C2 (stereo not shown) [C28620, 3-(6-methyl-1-oxo-isoindolin-2-yl)piperidine-2,6-dione]	270 nM	TRUE
CC(=O)Nc1ccc2c(c1)CN(C1CCC(=O)NC1=O)C2=O (stereo not shown) [C29361, N-[2-(2,6-dioxo-3-piperidyl)-1-oxo-isoindolin-5-yl]acetamide]	186 nM	TRUE
CC(=O)NC1c2ccccc2C(=O)N1C1CCC(=O)NC1=O (stereo not shown) [C33779, N-[2-(2,6-dioxo-3-piperidyl)-3-oxo-isoindolin-1-yl]acetamide]	3030 nM	TRUE
CC(=O)NCCNc1ccc2c(c1)CN(C1CCC(=O)NC1=O)C2=O (stereo not shown) [C35745, N-[2-[[2-(2,6-dioxo-3-piperidyl)-1-oxo-isoindolin-5-yl]amino]ethyl]acetamide]	2630 nM	TRUE
CCOC(=O)NCCNc1ccc2c(c1)CN(C1CCC(=O)NC1=O)C2=O (stereo not shown) [C35754, ethyl N-[2-[[2-(2,6-dioxo-3-piperidyl)-1-oxo-isoindolin-5-yl]amino]ethyl]carbamate]	278 nM	TRUE
NC(=O)c1cccc(NC(=O)CNc2ccc3c(c2)CN(C2CCC(=O)NC2=O)C3=O)c1 (stereo not shown) [C35811, 3-[[2-[[2-(2,6-dioxo-3-piperidyl)-1-oxo-isoindolin-5-yl]amino]acetyl]amino]benzamide]	641 nM	TRUE
O=C1CCC(N2Cc3ncccc3C2=O)C(=O)N1 (stereo not shown) [C47959, 3-(5-oxo-7H-pyrrolo[3,4-b]pyridin-6-yl)piperidine-2,6-dione]	441 nM	TRUE
O=C(O)CNc1ccc2c(c1)CN(C1CCC(=O)NC1=O)C2=O (stereo not shown) [C47995, 2-[[2-(2,6-dioxo-3-piperidyl)-1-oxo-isoindolin-5-yl]amino]acetic acid]	518 nM	TRUE

Structure (SMILES)	EC50 [1]	Recruitment Assessment [2]
O=C(O)CNc1cccc2c1C(=O)N(C1CCC(=O)NC1=O)C2 (stereo not shown) [C47998, 2-[[2-(2,6-dioxo-3-piperidyl)-3-oxo-isoindolin-4-yl]amino]acetic acid]	2170 nM	TRUE
N#Cc1cccc2c1CN(C1CCC(=O)NC1=O)C2=O (stereo not shown) [C48003, 2-(2,6-dioxo-3-piperidyl)-1-oxo-isoindoline-4-carbonitrile]	581 nM	TRUE
N#Cc1ccc2c(c1)CN(C1CCC(=O)NC1=O)C2=O (stereo not shown) [C48005, 2-(2,6-dioxo-3-piperidyl)-1-oxo-isoindoline-5-carbonitrile]	595 nM	TRUE
O=C1CCC(N2Cc3cc(-c4ccccc4)ccc3C2=O)C(=O)N1 (stereo not shown) [C48016, 3-(1-oxo-5-phenyl-isoindolin-2-yl)piperidine-2,6-dione]	122 nM	TRUE
O=C1CCC(N2Cc3ccc(-c4ccccc4)cc3C2=O)C(=O)N1 (stereo not shown) [C48018, 3-(1-oxo-6-phenyl-isoindolin-2-yl)piperidine-2,6-dione]	395 nM	TRUE
O=C1CCC(N2Cc3ccc(NCC(=O)N4Cc5ccccc5C4)cc3C2=O)C(=O)N1 (stereo not shown) [C95330, 3-[6-[(2-isoindolin-2-yl-2-oxo-ethyl)amino]-1-oxo-isoindolin-2-yl] piperidine-2,6-dione]		FALSE
CN(Cc1cnn(C)c1)C(=O)CNc1ccc2c(c1)C(=O)N(C1CCC(=O)NC1=O)C2 (stereo not shown) [C95333]		FALSE
O=C1CCC(N2Cc3ccc(NCC(=O)N4CC5COCC5C4)cc3C2=O)C(=O)N1 (stereo not shown) [C95334, 3-[6-[[2-(1,3,3a,4,6,6a-hexahydrofuro[3,4-c]pyrrol-5-yl)-2-oxo-ethyl]amino]-1-oxo-isoindolin-2-yl]piperidine-2.6-dione]		FALSE
CC1Cc2ccccc2N1C(=O)CNc1ccc2c(c1)C(=O)N(C1CCC(=O)NC1=O)C2 (stereo not shown) [C95336, 3-[6-[[2-(2-methylindolin-1-yl)-2-oxo-ethyl]amino]-1-oxo-isoindolin-2-yl]piperidine-2,6-dione]		FALSE
CN(CC1CC1)C(=O)CNc1ccc2c(c1)C(=O)N(C1CCC(=O)NC1=O)C2 (stereo not shown) [C95338, N-(cyclopropylmethyl)-2-[[2-(2,6-dioxo-3-piperidyl)-3-oxo-isoindolin-5-yl]amino]-N-methyl-acetamide]		FALSE
C=CCC1c2ccccc2C(=O)N1C1CCC(=O)NC1=O (stereo not shown) [C96413, 3-(1-allyl-3-oxo-isoindolin-2-yl)piperidine-2,6-dione]		FALSE
CN(C)c1ccc2c(c1)C(=O)N(C1CCC(=O)NC1=O)C2 (stereo not shown) [C96622, 3-[6-(dimethylamino)-1-oxo-isoindolin-2-yl]piperidine-2,6-dione]		FALSE
CC(C)(C)OC(=O)CC1c2ccccc2C(=O)N1C1CCC(=O)NC1=O (stereo not shown) [C98053, t-butyl 2-[2-(2,6-dioxo-3-piperidyl)-3-oxo-isoindolin-1-yl]acetate]		FALSE
O=C1CC=CC(C(=O)NC2CCC(=O)NC2=O)=N1 (stereo not shown) [C98696, N-(2,6-dioxo-3-piperidyl)-2-oxo-3H-pyridine-6-carboxamide]		FALSE
O=C1CCC(N2Cc3cccc([N+](=O)[O-])c3C2=O)C(=O)N1 (stereo not shown) [C99884, 3-(7-nitro-1-oxo-isoindolin-2-yl)piperidine-2,6-dione]		FALSE
Cc1nc2cccc(N)c2c(=O)n1C1CCC(=O)NC1=O (stereo not shown) [CC-122, 3-(5-amino-2-methyl-4-oxo-quinazolin-3-yl)piperidine-2,6-dione, reference compound]		TRUE
O=C1CC[C@H](N2Cc3c(OCc4ccc(CN5CCOCC5)cc4)cccc3C2=O)C(=O)N1 [CC-220, (3S)-3-[4-[[4-(morpholinomethyl)phenyl]methoxy]-1-oxo-isoindolin-2-yl]piperidine-2,6-dione, reference compound]		TRUE
Nc1cccc2c1C(=O)N(C1CCC(=O)NC1=O)C2=O (stereo not shown) [POM, 4-amino-2-(2,6-dioxo-3-piperidyl)isoindoline-1,3-dione, reference compound]		TRUE
O=C1CCC(N2C(=O)c3ccccc3C2=O)C(=O)N1 (stereo not shown) [THL, Thalidomide, reference compound]		TRUE
